Source: ChEMBL document CHEMBL3797052 (Eur J Med Chem, 2016)

Tests used:
[1] = Antiproliferative activity against human UACC257 cells assessed as cell growth at 10^-8 M after 48 hrs by sulforhodamine B assay; format: functional; settings: UACC-257, 48 h, read-out: Activity
[2] = Antiproliferative activity against human OVCAR8 cells assessed as growth inhibition after 48 hrs by sulforhodamine B assay; format: functional; settings: OVCAR-8, 48 h
A498 = experiment: Antiproliferative activity against human A498 cells assessed as cell growth at 10^-7 M after 48 hrs by sulforhodamine B assay; format: functional; settings: A498, 48 h, read-out: Activity
[3] = Antiproliferative activity against human RXF393 cells assessed as cell growth at 10^-7 M after 48 hrs by sulforhodamine B assay; format: functional; settings: RXF 393, 48 h, read-out: Activity
[4] = Antiproliferative activity against human LOXIMVI cells assessed as cell growth at 10^-7 M after 48 hrs by sulforhodamine B assay; format: functional; settings: LOX IMVI, read-out: Activity
NCI-H322M = experiment: Antiproliferative activity against human NCI-H322M cells assessed as cell growth at 10^-4 M after 48 hrs by sulforhodamine B assay; format: functional; settings: read-out: Activity
[5] = Antiproliferative activity against human DU145 cells assessed as growth inhibition after 48 hrs by sulforhodamine B assay; format: functional; settings: DU-145, 48 h; for CC50: read-out: LC50 (the source's name)
[6] = Antiproliferative activity against human UACC257 cells assessed as cell growth at 10^-7 M after 48 hrs by sulforhodamine B assay; format: functional; settings: UACC-257, 48 h, read-out: Activity
SK-MEL-28 = experiment: Antiproliferative activity against human SK-MEL-28 cells assessed as growth inhibition after 48 hrs by sulforhodamine B assay; format: functional; settings: SK-MEL-28, 48 h; for CC50: read-out: LC50 (the source's name)
[7] = Antiproliferative activity against human SF539 cells assessed as cell growth at 10^-6 M after 48 hrs by sulforhodamine B assay; format: functional; settings: SF-539, 48 h, read-out: Activity
[8] = Antiproliferative activity against human BT549 cells assessed as cell growth at 10^-8 M after 48 hrs by sulforhodamine B assay; format: functional; settings: BT-549, 48 h, read-out: Activity
ACHN = experiment: Antiproliferative activity against human ACHN cells assessed as growth inhibition after 48 hrs by sulforhodamine B assay; format: functional
[9] = Antiproliferative activity against human SKOV3 cells assessed as cell growth at 10^-4 M after 48 hrs by sulforhodamine B assay; format: functional; settings: SK-OV-3, 48 h, read-out: Activity
[10] = Antiproliferative activity against human TK10 cells assessed as cell growth at 10^-4 M after 48 hrs by sulforhodamine B assay; format: functional; settings: TK-10, 48 h, read-out: Activity
MDA-MB-435 = experiment: Antiproliferative activity against human MDA-MB-435 cells assessed as cell growth at 10^-7 M after 48 hrs by sulforhodamine B assay; format: functional; settings: MDA-MB-435, 48 h, read-out: Activity
[11] = Antiproliferative activity against human SF539 cells assessed as growth inhibition after 48 hrs by sulforhodamine B assay; format: functional; settings: SF-539, 48 h
[12] = Antiproliferative activity against human HL-60(TB) cells assessed as cell growth at 10^-7 M after 48 hrs by sulforhodamine B assay; format: functional; settings: HL-60, 48 h, read-out: Activity
[13] = target: RAF proto-oncogene serine/threonine-protein kinase (Homo sapiens, UniProt P04049); experiment: Inhibition of human C-RAF measured after 40 mins by scintillation counting
SK-MEL-2 [14] = experiment: Antiproliferative activity against human SK-MEL-2 cells assessed as cell growth at 10^-4 M after 48 hrs by sulforhodamine B assay; format: functional; settings: SK-MEL-2, 48 h, read-out: Activity
[15] = Antiproliferative activity against human RXF393 cells assessed as cell growth at 10^-6 M after 48 hrs by sulforhodamine B assay; format: functional; settings: RXF 393, 48 h, read-out: Activity
[16] = Antiproliferative activity against human SF295 cells assessed as cell growth at 10^-7 M after 48 hrs by sulforhodamine B assay; format: functional; settings: SF-295, 48 h, read-out: Activity
EKVX = experiment: Antiproliferative activity against human EKVX cells assessed as cell growth at 10^-4 M after 48 hrs by sulforhodamine B assay; format: functional; settings: read-out: Activity
[17] = Antiproliferative activity against human DU145 cells assessed as cell growth at 10^-6 M after 48 hrs by sulforhodamine B assay; format: functional; settings: DU-145, 48 h, read-out: Activity
SK-MEL-2 [18] = experiment: Antiproliferative activity against human SK-MEL-2 cells assessed as cell growth at 10^-6 M after 48 hrs by sulforhodamine B assay; format: functional; settings: SK-MEL-2, 48 h, read-out: Activity
[19] = Antiproliferative activity against human NCI-ADR-RES cells assessed as cell growth at 10^-6 M after 48 hrs by sulforhodamine B assay; format: functional; settings: read-out: Activity
[20] = Antiproliferative activity against human HCC2998 cells assessed as cell growth at 10^-7 M after 48 hrs by sulforhodamine B assay; format: functional; settings: HCC 2998, 48 h, read-out: Activity
[21] = Antiproliferative activity against human RPMI8226 cells assessed as cell growth at 10^-7 M after 48 hrs by sulforhodamine B assay; format: functional; settings: RPMI-8226, 48 h, read-out: Activity
MDA-MB-231 = experiment: Antiproliferative activity against human MDA-MB-231 cells assessed as cell growth at 10^-6 M after 48 hrs by sulforhodamine B assay; format: functional; settings: MDA-MB-231, 48 h, read-out: Activity
Malme-3M = experiment: Antiproliferative activity against human MALME-3M cells assessed as cell growth at 10^-6 M after 48 hrs by sulforhodamine B assay; format: functional; settings: read-out: Activity
[22] = Antiproliferative activity against human OVCAR3 cells assessed as cell growth at 10^-7 M after 48 hrs by sulforhodamine B assay; format: functional; settings: OVCAR-3, 48 h, read-out: Activity
T47D = experiment: Antiproliferative activity against human T47D cells assessed as cell growth at 10^-7 M after 48 hrs by sulforhodamine B assay; format: functional; settings: read-out: Activity
[23] = Antiproliferative activity against human NCI-ADR-RES cells assessed as cell growth at 10^-4 M after 48 hrs by sulforhodamine B assay; format: functional; settings: read-out: Activity
786-0 = experiment: Antiproliferative activity against human 786-0 cells assessed as cell growth at 10^-7 M after 48 hrs by sulforhodamine B assay; format: functional; settings: 786-0, 48 h, read-out: Activity
KM12 = experiment: Antiproliferative activity against human KM12 cells assessed as cell growth at 10^-8 M after 48 hrs by sulforhodamine B assay; format: functional; settings: KM12, 48 h, read-out: Activity
SK-MEL-2 [24] = experiment: Antiproliferative activity against human SK-MEL-2 cells assessed as cell growth at 10^-8 M after 48 hrs by sulforhodamine B assay; format: functional; settings: SK-MEL-2, 48 h, read-out: Activity
NCI-H460 = experiment: Antiproliferative activity against human NCI-H460 cells assessed as cell growth at 10^-7 M after 48 hrs by sulforhodamine B assay; format: functional; settings: NCI-H460, 48 h, read-out: Activity
[25] = Antiproliferative activity against human UACC257 cells assessed as growth inhibition after 48 hrs by sulforhodamine B assay; format: functional; settings: UACC-257, 48 h; for CC50: read-out: LC50 (the source's name)

Sequence of RAF proto-oncogene serine/threonine-protein kinase (P04049 whole entry): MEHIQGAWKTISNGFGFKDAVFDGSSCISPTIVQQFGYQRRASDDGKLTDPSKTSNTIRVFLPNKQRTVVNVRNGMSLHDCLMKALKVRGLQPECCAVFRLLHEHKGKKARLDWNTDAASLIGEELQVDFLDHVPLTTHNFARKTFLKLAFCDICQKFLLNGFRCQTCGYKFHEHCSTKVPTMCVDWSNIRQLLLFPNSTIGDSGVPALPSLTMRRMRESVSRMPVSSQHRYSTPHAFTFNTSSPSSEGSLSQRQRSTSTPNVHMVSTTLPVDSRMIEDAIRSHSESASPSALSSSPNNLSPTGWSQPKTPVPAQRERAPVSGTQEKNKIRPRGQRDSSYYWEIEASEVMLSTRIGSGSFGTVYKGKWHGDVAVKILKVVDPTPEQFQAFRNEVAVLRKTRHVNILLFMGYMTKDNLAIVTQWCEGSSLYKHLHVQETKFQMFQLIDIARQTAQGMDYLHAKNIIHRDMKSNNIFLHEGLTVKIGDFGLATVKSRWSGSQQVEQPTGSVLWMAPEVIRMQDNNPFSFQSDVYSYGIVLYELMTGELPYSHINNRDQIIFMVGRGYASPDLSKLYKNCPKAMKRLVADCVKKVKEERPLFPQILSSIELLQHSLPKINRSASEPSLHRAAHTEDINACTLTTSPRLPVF

## CNC(=O)c1cc(Oc2ccc3nc(NC(=O)Nc4ccc(Cl)c(Cl)c4)sc3c2)ccn1
[1]
  growth at 0.01 µM: 92%
[2]
  GI50: 2360 nM
  LC50: 73900 nM
  TGI: 5270 nM
A498
  growth at 0.1 µM: 110%
[3]
  growth at 0.1 µM: 101%
[4]
  growth at 0.1 µM: 93%
NCI-H322M
  growth at 100 µM: 4%
[5]
  GI50: 2450 nM
  TGI: 6290 nM
  CC50: > 100000 nM
[6]
  growth at 0.1 µM: 92%
SK-MEL-28
  GI50: 1740 nM
  TGI: 3560 nM
  CC50: 7310 nM
[7]
  growth at 1 µM: 100%
[8]
  growth at 0.01 µM: 94%
ACHN
  GI50: 2100 nM
  LC50: > 100000 nM
  TGI: 5560 nM
[9]
  growth at 100 µM: -69%
[10]
  growth at 100 µM: -14%
MDA-MB-435
  growth at 0.1 µM: 95%
[11]
  GI50: 2170 nM
  LC50: 11100 nM
  TGI: 4690 nM
[12]
  growth at 0.1 µM: 102%
[13]
  IC50: 15 nM
SK-MEL-2 [14]
  growth at 100 µM: -48%
[15]
  growth at 1 µM: 94%
[16]
  growth at 0.1 µM: 90%
EKVX
  growth at 100 µM: 23%
[17]
  growth at 1 µM: 97%
SK-MEL-2 [18]
  growth at 1 µM: 105%
[19]
  growth at 1 µM: 103%
[20]
  growth at 0.1 µM: 101%
[21]
  growth at 0.1 µM: 107%
MDA-MB-231
  growth at 1 µM: 85%
Malme-3M
  growth at 1 µM: 76%
[22]
  growth at 0.1 µM: 102%
T47D
  growth at 0.1 µM: 106%
[23]
  growth at 100 µM: -49%
786-0
  growth at 0.1 µM: 100%
KM12
  growth at 0.01 µM: 98%
SK-MEL-2 [24]
  growth at 0.01 µM: 115%
NCI-H460
  growth at 0.1 µM: 109%
[25]
  GI50: 2250 nM
  CC50: > 100000 nM

## CNC(=O)c1cc(Oc2ccc3nc(NC(=O)Nc4ccc(Cl)c(C(F)(F)F)c4)sc3c2)ccn1
[1]
  growth at 0.01 µM: 102%
[2]
  GI50: 2340 nM
  LC50: > 100000 nM
  TGI: 5250 nM
A498
  growth at 0.1 µM: 97%
[3]
  growth at 0.1 µM: 90%
[4]
  growth at 0.1 µM: 102%
NCI-H322M
  growth at 100 µM: 27%
[5]
  GI50: 2240 nM
  CC50: > 100000 nM
[6]
  growth at 0.1 µM: 98%
SK-MEL-28
  GI50: 1560 nM
[7]
  growth at 1 µM: 87%
[8]
  growth at 0.01 µM: 95%
ACHN
  GI50: 1850 nM
  LC50: 7820 nM
  TGI: 3800 nM
[9]
  growth at 100 µM: -68%
[10]
  growth at 100 µM: -62%
MDA-MB-435
  growth at 0.1 µM: 92%
[11]
  GI50: 1780 nM
  TGI: 3900 nM
[12]
  growth at 0.1 µM: 110%
[13]
  IC50: 111 nM
SK-MEL-2 [14]
  growth at 100 µM: -18%
[15]
  growth at 1 µM: 88%
[16]
  growth at 0.1 µM: 88%
EKVX
  growth at 100 µM: -32%
[17]
  growth at 1 µM: 82%
SK-MEL-2 [18]
  growth at 1 µM: 89%
[19]
  growth at 1 µM: 94%
[20]
  growth at 0.1 µM: 108%
[21]
  growth at 0.1 µM: 101%
MDA-MB-231
  growth at 1 µM: 66%
Malme-3M
  growth at 1 µM: 79%
[22]
  growth at 0.1 µM: 111%
T47D
  growth at 0.1 µM: 92%
[23]
  growth at 100 µM: 11%
786-0
  growth at 0.1 µM: 101%
KM12
  growth at 0.01 µM: 103%
SK-MEL-2 [24]
  growth at 0.01 µM: 103%
NCI-H460
  growth at 0.1 µM: 103%
[25]
  GI50: 3370 nM
  TGI: > 100000 nM
  CC50: > 100000 nM

## CNC(=O)c1cc(Oc2ccc3nc(NC(=O)Nc4cc(C(F)(F)F)cc(C(F)(F)F)c4)sc3c2)ccn1
[1]
  growth at 0.01 µM: 102%
[2]
  GI50: 1330 nM
  LC50: 5470 nM
  TGI: 2690 nM
A498
  growth at 0.1 µM: 111%
[3]
  growth at 0.1 µM: 91%
[4]
  growth at 0.1 µM: 93%
NCI-H322M
  growth at 100 µM: -50%
[5]
  GI50: 1250 nM
  TGI: 2980 nM
  CC50: 7140 nM
[6]
  growth at 0.1 µM: 114%
SK-MEL-28
  GI50: 1290 nM
  TGI: 2930 nM
  CC50: 6620 nM
[7]
  growth at 1 µM: 63%
[8]
  growth at 0.01 µM: 89%
ACHN
  GI50: 542 nM
  LC50: 5700 nM
  TGI: 1980 nM
[9]
  growth at 100 µM: -84%
[10]
  growth at 100 µM: -87%
MDA-MB-435
  growth at 0.1 µM: 95%
[11]
  GI50: 1240 nM
  LC50: 6330 nM
  TGI: 2800 nM
[12]
  growth at 0.1 µM: 31%
[13]
  IC50: 566 nM
SK-MEL-2 [14]
  growth at 100 µM: -75%
[15]
  growth at 1 µM: 63%
[16]
  growth at 0.1 µM: 92%
EKVX
  growth at 100 µM: -56%
[17]
  growth at 1 µM: 63%
SK-MEL-2 [18]
  growth at 1 µM: 52%
[19]
  growth at 1 µM: 63%
[20]
  growth at 0.1 µM: 105%
[21]
  growth at 0.1 µM: 108%
MDA-MB-231
  growth at 1 µM: 46%
Malme-3M
  growth at 1 µM: 48%
[22]
  growth at 0.1 µM: 97%
T47D
  growth at 0.1 µM: 89%
[23]
  growth at 100 µM: -49%
786-0
  growth at 0.1 µM: 99%
KM12
  growth at 0.01 µM: 100%
SK-MEL-2 [24]
  growth at 0.01 µM: 90%
NCI-H460
  growth at 0.1 µM: 108%
[25]
  GI50: 1150 nM
  TGI: 2620 nM
  CC50: 5950 nM
